What is called IC50 is the point on the concentration scale where inhibition reaches its midpoint.

Among the data in patent US9718790B2, “Triazine derivative and pharmaceutical composition having an analgesic activity comprising the same” (SHIONOGI & CO., LTD., priority 2010, dated 2017) are IC50 values, retold here.

The target in this assay is human P2X3 receptor (Homo sapiens (Human), UniProt P56373). The assay is described as follows: Evaluation of human P2X3 receptor inhibitory activity (Fluo-3 calcium fluorescence, FDSS 3000, ATP stimulation).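 Further: stimulus was 50 nM ATP with fluorescence followed for 3 min, and the response per well was peak post-ATP fluorescence divided by the reading at measurement start.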 It is filed as cell-based. Conditions: C6BU-1 cells stably expressing human P2X3 receptor, Fluo-3 fluorescence, FDSS 3000.
Chain of human P2X3 receptor (P56373 whole entry): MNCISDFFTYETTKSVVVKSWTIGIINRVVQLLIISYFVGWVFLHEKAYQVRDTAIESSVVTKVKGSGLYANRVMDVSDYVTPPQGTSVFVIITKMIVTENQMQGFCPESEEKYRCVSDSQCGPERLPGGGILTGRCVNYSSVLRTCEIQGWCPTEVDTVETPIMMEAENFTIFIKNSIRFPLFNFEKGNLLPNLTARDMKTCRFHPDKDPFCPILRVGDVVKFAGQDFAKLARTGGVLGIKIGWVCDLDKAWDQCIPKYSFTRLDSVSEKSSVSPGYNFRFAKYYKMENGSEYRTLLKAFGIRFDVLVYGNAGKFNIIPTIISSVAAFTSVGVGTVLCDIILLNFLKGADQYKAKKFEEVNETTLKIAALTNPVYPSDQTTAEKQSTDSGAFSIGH

As for `COc1noc2cc(/N=c3\[nH]c(=O)n([C@@H](C)[C@@H](C)C(=O)O)c(=O)n3Cc3ccc(Cl)cc3)ccc12` [Compound I-1746], the IC50 came to 129 nM.
The same measure for `C[C@@H](C(=O)O)[C@H](C)n1c(=O)[nH]/c(=N\c2ccc3oc4c(c3c2)CCCCC4)n(Cc2ccc(Cl)cc2)c1=O` [Compound I-1747]: 201 nM; for `C[C@@H](C(=O)O)[C@H](C)n1c(=O)[nH]/c(=N\c2ccc3oc4c(c3c2)CCCC4)n(Cc2ccc(Cl)cc2)c1=O` [Compound I-1748]: 236 nM.
Take `CC1CCC(Cn2c(=O)n(CCC(=O)O)c(=O)[nH]/c2=N\c2ccc(OC(C)C)c(F)c2)CC1` (stereo not drawn) [Compound I-1750]: the IC50 was 21 nM.
With `CCc1nc2ccc(/N=c3\[nH]c(=O)n(CC(=O)OC)c(=O)n3Cc3ccc(Cl)cc3)cc2s1` [Compound I-1752] the figure was 4 nM.
With `COC(=O)Cn1c(=O)[nH]/c(=N\c2ccc(Oc3ccc(OC)nc3)cc2)n(Cc2ccc(Cl)cc2)c1=O` [Compound I-1753], the IC50 stood at 9 nM.
With `COC(=O)Cn1c(=O)[nH]/c(=N\c2ccc(Oc3ccnc(C)c3)cc2)n(Cc2ccc(Cl)cc2)c1=O` [Compound I-1754] the figure was 5 nM; with `Cc1cc(Oc2ccc(/N=c3\[nH]c(=O)n(CCO)c(=O)n3Cc3ccc(Cl)cc3)cc2)no1` [Compound I-1756], 30 nM; with `COC(=O)CCn1c(=O)[nH]/c(=N\C2CCC(C)CC2)n(Cc2ccc(C)cc2)c1=O` (stereo not drawn) [Compound I-1759], 408 nM.
With `COc1ccc(COc2cc(Cn3c(=O)[nH]/c(=N\c4ccc(OC(C)C)c(F)c4)n(Cc4ccc(Cl)cc4)c3=O)on2)cc1` [Compound I-1764] the figure was 35 nM.
For the molecule `CCc1cc2cc(/N=c3\[nH]c(=O)n(C[C@H](C)C(=O)OC)c(=O)n3Cc3ccc(Cl)cc3)ccc2o1` [Compound I-1765], the half-maximal inhibitory concentration (IC50) came out at 9 nM.
With `CCc1cc2cc(/N=c3\[nH]c(=O)n(C[C@H](C)C(=O)O)c(=O)n3Cc3ccc(Cl)cc3)ccc2o1` [Compound I-1766] the figure was 18 nM; with `CC(C)Oc1ccc(/N=c2\[nH]c(=O)n(Cc3cc(O)no3)c(=O)n2Cc2ccc(Cl)cc2)cc1F` [Compound I-1767], 55 nM.
With `CCc1nc2ccc(/N=c3\[nH]c(=O)n(CCC(N)=O)c(=O)n3Cc3ccc(Cl)cc3)cc2s1` [Compound I-1768] the figure was 6 nM.
With `CCc1nc2ccc(/N=c3\[nH]c(=O)n(CCC#N)c(=O)n3Cc3ccc(Cl)cc3)cc2s1` [Compound I-1769] the figure was 3 nM.
Take `CC(C)n1c2c(c3cc(/N=c4\[nH]c(=O)n([C@@H](C)[C@@H](C)C(=O)O)c(=O)n4Cc4ccc(Cl)cc4)ccc31)CCCC2` [Compound I-1770]: the IC50 was determined as 788 nM.
With `Cc1[nH]c2ccc(/N=c3\[nH]c(=O)n([C@@H](C)[C@@H](C)C(=O)O)c(=O)n3Cc3ccc(Cl)cc3)cc2c1C` [Compound I-1771] the figure was 14 nM.
`CC(C)n1cnc2cc(/N=c3\[nH]c(=O)n([C@@H](C)[C@@H](C)C(=O)O)c(=O)n3Cc3ccc(Cl)cc3)ccc21` [Compound I-1772]: the IC50 was 297 nM.
With `COc1ccc2cc(/N=c3\[nH]c(=O)n([C@@H](C)[C@@H](C)C(=O)O)c(=O)n3Cc3ccc(Cl)cc3)ccc2c1` [Compound I-1773], the 50% inhibitory concentration (IC50) was determined as 29 nM.
The same measure for `C[C@@H](C(=O)O)[C@H](C)n1c(=O)[nH]/c(=N\c2ccc3c(c2)CCN3S(C)(=O)=O)n(Cc2ccc(Cl)cc2)c1=O` [Compound I-1774]: 255 nM; for `C[C@@H](C(=O)O)[C@H](C)n1c(=O)[nH]/c(=N\c2ccc3c(c2)CC/C3=N\O)n(Cc2ccc(Cl)cc2)c1=O` [Compound I-1777]: 636 nM; for `CC(C)N1C(=O)Cc2cc(/N=c3\[nH]c(=O)n([C@@H](C)[C@@H](C)C(=O)O)c(=O)n3Cc3ccc(Cl)cc3)ccc21` [Compound I-1779]: 203 nM.
With `C[C@@H](C(=O)O)[C@H](C)n1c(=O)[nH]/c(=N\c2ccc3c(c2)sc(=O)n3CC(F)(F)F)n(Cc2ccc(Cl)cc2)c1=O` [Compound I-1780], the half-inhibitory concentration (IC50) is 932 nM.
In the case of `C[C@@H](C(=O)O)[C@H](C)n1c(=O)[nH]/c(=N\c2ccc3[nH]ccc3c2)n(Cc2ccc(Cl)cc2)c1=O` [Compound I-1781], the concentration for half-maximal inhibition (IC50) was 518 nM.
With `C[C@@H](C(=O)O)[C@H](C)n1c(=O)[nH]/c(=N\c2ccc3c(c2)OC(F)(F)C(F)(F)O3)n(Cc2ccc(Cl)cc2)c1=O` [Compound I-1783] the figure was 170 nM.
With `C[C@@H](C(=O)O)[C@H](C)n1c(=O)[nH]/c(=N\c2ccc3c(c2)CCCC3=O)n(Cc2ccc(Cl)cc2)c1=O` [Compound I-1784], the IC50 worked out at 950 nM.
Take `C[C@@H](C(=O)O)[C@H](C)n1c(=O)[nH]/c(=N\c2ccc3c(c2)OCC(=O)N3)n(Cc2ccc(Cl)cc2)c1=O` [Compound I-1786]: the half-maximal inhibitory concentration (IC50) stood at 621 nM.
With `O=c1[nH]/c(=N\c2ccc(Oc3ccc(O)nc3)cc2)n(Cc2ccc(Cl)cc2)c(=O)n1CCO` [Compound I-1789] the figure was 30 nM.
The same measure for `CCCc1nc2ccc(/N=c3\[nH]c(=O)n([C@@H](C)[C@@H](C)C(=O)O)c(=O)n3Cc3ccc(Cl)cc3)cc2s1` [Compound I-1792]: 20 nM; for `CC(=O)Nc1nc2ccc(/N=c3\[nH]c(=O)n([C@@H](C)[C@@H](C)C(=O)O)c(=O)n3Cc3ccc(Cl)cc3)cc2s1` [Compound I-1793]: 984 nM.
The same measure for `C[C@@H](C(=O)O)[C@H](C)n1c(=O)[nH]/c(=N\c2ccc3nc(C(F)(F)F)[nH]c3c2)n(Cc2ccc(Cl)cc2)c1=O` [Compound I-1794]: 380 nM; for `COC(=O)[C@H](C)[C@H](C)n1c(=O)[nH]/c(=N\c2ccc3nc(C)[nH]c3c2)n(Cc2ccc(Cl)cc2)c1=O` [Compound I-1795]: 795 nM.
On to `C[C@@H](C(=O)O)[C@H](C)n1c(=O)[nH]/c(=N\c2ccc3c(c2)CCCC3)n(Cc2ccc(Cl)cc2)c1=O` [Compound I-1796], for which the IC50 worked out at 587 nM.
Regarding `O=C(O)c1cc(Oc2ccc(/N=c3\[nH]c(=O)n(CCO)c(=O)n3Cc3ccc(Cl)cc3)cc2)ccn1` [Compound I-1797], the IC50 turned out to be 6 nM.
The same measure for `CCc1nc2ccc(/N=c3\[nH]c(=O)n(CC(=O)O)c(=O)n3Cc3ccc(Cl)cc3)cc2s1` [Compound I-1798]: 150 nM; for `COc1ccc(Oc2ccc(/N=c3\[nH]c(=O)n(CC(=O)O)c(=O)n3Cc3ccc(Cl)cc3)cc2)cn1` [Compound I-1799]: 382 nM.
With `Cc1cc(Oc2ccc(/N=c3\[nH]c(=O)n(CC(=O)O)c(=O)n3Cc3ccc(Cl)cc3)cc2)ccn1` [Compound I-1800] the figure was 510 nM.
Take `COC(=O)CCn1c(=O)[nH]/c(=N\Nc2ccc(OC)cc2)n(Cc2ccc(C)cc2)c1=O` [Compound I-1801]: the IC50 came to 687 nM.
For `COC(=O)CCn1c(=O)[nH]/c(=N\c2cn(C)nc2C(=O)NC(C)C)n(Cc2ccc(C)cc2)c1=O` [Compound I-1804], the concentration for half-maximal inhibition (IC50) came out at 162 nM.
With `CCc1nc2ccc(/N=c3\[nH]c(=O)n(CC(N)=O)c(=O)n3Cc3ccc(Cl)cc3)cc2s1` [Compound I-1805] the figure was 5 nM.
With `CCc1nc2ccc(/N=c3\[nH]c(=O)n(CC(=O)NC)c(=O)n3Cc3ccc(Cl)cc3)cc2s1` [Compound I-1807] the figure was 6 nM; with `CCc1nc2ccc(/N=c3\[nH]c(=O)n(CC(=O)NCCO)c(=O)n3Cc3ccc(Cl)cc3)cc2s1` [Compound I-1808], 4 nM.
With `CC(C)Oc1ccc(/N=c2\[nH]c(=O)n(CCC(=O)O)c(=O)n2CC2(C)CCCCC2)cc1F` [Compound I-1809] the figure was 339 nM; with `C[C@@H](C(=O)O)[C@H](C)n1c(=O)[nH]/c(=N\c2ccc3c(c2)CCOC3)n(Cc2ccc(Cl)cc2)c1=O` [Compound I-1810], 682 nM.
As for `C[C@@H](C(=O)O)[C@H](C)n1c(=O)[nH]/c(=N\c2ccc3c(c2)nc(-c2ccccc2)n3C)n(Cc2ccc(Cl)cc2)c1=O` [Compound I-1812], the IC50 was determined as 630 nM.
The same measure for `C[C@@H](C(=O)O)[C@H](C)n1c(=O)[nH]/c(=N\c2ccc3oc(-c4ccccc4)nc3c2)n(Cc2ccc(Cl)cc2)c1=O` [Compound I-1814]: 299 nM; for `CCn1c2ccccc2c2cc(/N=c3\[nH]c(=O)n([C@@H](C)[C@@H](C)C(=O)O)c(=O)n3Cc3ccc(Cl)cc3)ccc21` [Compound I-1815]: 367 nM.
With `C[C@@H](C(=O)O)[C@H](C)n1c(=O)[nH]/c(=N\c2ccc3oc(-c4ccncc4)nc3c2)n(Cc2ccc(Cl)cc2)c1=O` [Compound I-1816] the figure was 300 nM; with `CCCc1cc2cc(/N=c3\[nH]c(=O)n([C@@H](C)[C@@H](C)C(=O)OC)c(=O)n3Cc3ccc(Cl)cc3)ccc2o1` [Compound I-1817], 52 nM.
With `C[C@@H](C(=O)O)[C@H](C)n1c(=O)[nH]/c(=N\c2ccc3[nH]c(=O)[nH]c(=O)c3c2)n(Cc2ccc(Cl)cc2)c1=O` [Compound I-1818] the figure was 829 nM.
On to `C[C@@H](C(=O)O)[C@H](C)n1c(=O)[nH]/c(=N\c2ccc3c(c2)CCC(=O)N3)n(Cc2ccc(Cl)cc2)c1=O` [Compound I-1819], for which the IC50 came out at 873 nM.
The same measure for `C[C@@H](C(=O)O)[C@H](C)n1c(=O)[nH]/c(=N\c2ccc3c(c2)CCCO3)n(Cc2ccc(Cl)cc2)c1=O` [Compound I-1820]: 204 nM; for `C[C@@H](C(=O)O)[C@H](C)n1c(=O)[nH]/c(=N\c2ccc3c(c2)OC(F)(F)O3)n(Cc2ccc(Cl)cc2)c1=O` [Compound I-1821]: 429 nM; for `C[C@@H](C(=O)O)[C@H](C)n1c(=O)[nH]/c(=N\c2ccc3[nH]c(S)nc3c2)n(Cc2ccc(Cl)cc2)c1=O` [Compound I-1822]: 332 nM.
With `C[C@@H](C(=O)O)[C@H](C)n1c(=O)[nH]/c(=N\c2ccc3c(O)cccc3c2)n(Cc2ccc(Cl)cc2)c1=O` [Compound I-1826] the figure was 751 nM.
The same measure for `COC(=O)[C@H](C)[C@H](C)n1c(=O)[nH]/c(=N\c2ccc3oc4ccccc4c3c2)n(Cc2ccc(Cl)cc2)c1=O` [Compound I-1827]: 913 nM; for `C[C@@H](C(=O)O)[C@H](C)n1c(=O)[nH]/c(=N\c2ccc3nc(-c4ccccc4)sc3c2)n(Cc2ccc(Cl)cc2)c1=O` [Compound I-1829]: 92 nM.
